{"source": "patent US20210356447A1", "about": "“EFFICACY EVALUATION METHOD OF DRUG FOR REVERSING TUMOR MULTIDRUG RESISTANCE” (JINAN UNIVERSITY, priority 2018, published 2021)", "tested_on": "Liver cancer HepG2/ADR tumor-transplanted nude mouse model", "assay": "Callback rate of serum and urine metabolic markers (targeted metabonomics, LC-MS/MS) in drug-resistant liver cancer nude mouse model", "type": "in vivo, nude mice (nu/nu-BALB/c)", "key": {"[1]": {"details": "serum metabolic marker, 3 mg/kg, 0.2 ml tail vein injection once every three days, seven times, HepG2/ADR nude mice"}, "[2]": {"details": "urine metabolic marker, 3 mg/kg, 0.2 ml tail vein injection once every three days, seven times, HepG2/ADR nude mice"}}, "experimental": "Liver cancer HepG2/ADR tumor-transplanted nude mouse models were firstly established and divided into four groups with 30 mice in each group, and after one week of successful establishment of the model, the mice were administered in different methods:\nMetabolic markers were quantified by a targeted metabonomics technology, and an efficacy of a drug for reversing tumor multidrug resistance to be evaluated was evaluated by a concentration of each metabolic marker.\nCell transplanting: ten nude mice without thymus, including five male mice and five female mice, were selected, after 10-day adaptation period, 0.2 ml of HepG2/ADR cells (cell concentration: 6×10^7 cells/ml) were subcutaneously injected into each nude mouse with a 23G sterile needle, and in order to prevent tumor cells from being destroyed and matrix gel from being solidified in the period, the injection should be completed as soon as possible. Before injection, the needle was shaken left and right to form an expanded subcutaneous cyst (because if the injection was performed to a specific area by not shaking the needle, the mixture could form a large cell mass, and ineffective perfusion of nutrients in a core of the mass into the cells could result in subsequent growth defects), and when the needle was taken out, the injector was rotated to prevent leakage of cell sap. After subcutaneous injection, the matrix gel was irreversibly solidified to form a red bulge, about 10 days later, the solidified matrix gel was eliminated, and the tumor cells were successfully inoculated, and after a tumor mass grew for three weeks, nude mice with the tumor of the same size (about 7 mm in diameter) were selected. The subcutaneous tumor mass was taken out, a peripheral part of the tumor mass was divided into small tumor masses of 2×2×2 mm, after the nude mice (nu/nu-BALB/c, half male nude mice and half female nude mice at six weeks old, n=30) were anesthetized with isoflurane, the small tumor masses were subcutaneously implanted into shoulders of the nude mice to make the tumor masses of liver cancer model mice similar in size and shape, thus reducing experimental errors caused by different tumor mass sizes. After successful transplantation, growth statuses of the model nude mice were observed and recorded every day, weights of the nude mice were recorded every two days, and tumor sizes (length and width) were measured with a vernier caliper.\nHealthy group: only normal saline was administrated to 30 healthy nude mice without being inoculated with any tumor cells once every three days for a total of seven times, with a dose of 0.2 ml each time by an administration method of tail vein injection.\nNegative control group: only normal saline was administrated to 30 liver cancer HepG2/ADR tumor-transplanted nude mouse models once every three days for a total of seven times, with a dose of 0.2 ml each time by an administration method of tail vein injection.\nMass spectra of standard substances of a-linolenic acid, 3-methylglutaric acid, 17-hydroxystearic acid, xanthurenic acid, indole-2-carboxylic acid and 3-furoic acid were measured to determine mass-spectrometric detection conditions of each metabolic marker.\nA series of linear concentration samples of the standard substance of each metabolic marker were respectively measured using the detection conditions above to obtain a relationship between a peak area of a characteristic fragment particle peak and a concentration of each metabolic marker, and linear regression was performed to obtain a linear regression equation."}
{"smiles": "COc1cccc2c1C(=O)c1c(O)c3c(c(O)c1C2=O)C[C@@](O)(C(=O)CO)C[C@@H]3O[C@H]1C[C@H](N)[C@H](O)[C@H](C)O1", "note": "[Positive control group, doxorubicin]", "values": [{"measurement": "Callback rate, 3-methylglutaric acid", "setting": "[1]", "value": 13.69, "unit": "%"}, {"measurement": "Callback rate, A-linolenic acid", "setting": "[1]", "value": 17.56, "unit": "%"}, {"measurement": "Callback rate, 3-furoic acid", "setting": "[2]", "value": 12.30, "unit": "%"}, {"measurement": "Callback rate, Xanthurenic acid", "setting": "[2]", "value": 19.08, "unit": "%"}, {"measurement": "Callback rate, indole-2-carboxylic acid", "setting": "[2]", "value": 12.73, "unit": "%"}]}
{"smiles": "O=c1ccc2cc3ccoc3cc2o1", "note": "[psoralen]", "values": [{"measurement": "effect of reversing tumor drug resistance, judged from the callback rates", "setting": "result in words, comparison of groups in HepG2/ADR nude mice", "value": "really has the effect of reversing tumor drug resistance"}]}
